Reference: patent publication US20220160804A1, “USE OF LAURUS NOBILIS EXTRACT FRACTIONS TO PROTECT AGAINST AIR POLLUTION RELATED DISEASES” (DSM IP Assets B.V., priority 2019, published 2022)

Experiments:
IL-8 = IL-8 secretion of A549 cells treated with Diesel Particulate Matter; type: cell-based, human; conditions: Table 5, LPS 10 μg/mL
Source text: (§1) The human bronchial epithelial cell line BEAS-2B was from ATCC (American Type Culture Collection, Manassas, Va.) and cultured in Bronchial Epithelial cell Growth Medium (BEGM, Lonza, Wakersville, Md.) in CellBIND® surface plastic flasks (Corning Inc., Corning, N.Y.). The adenocarcinomic human alveolar basal epithelial A549 cell line was obtained from ATCC and cultured in Kaighn's Modification of Ham's F-12 Medium (F-12K medium) (Life Technologies, USA), supplemented with 10% FBS (Sigma, Saint-Louis, Mo.). These cells were cultured at 37° C. in a humidified atmosphere containing 5% CO2.
(§2) BEAS-2B cells were seeded in 12-well CellBIND® surface culture plates (Corning Inc.) at 3 to 4×10^5 cells per well. A549 cells were seeded in 12-well plates at 2×10^5 cells per well. […]
(§3) After 24 h, cells were treated with the diluted Diesel Particulate Matter at 100 μg/ml and in the presence of different concentrations of Laurus Extracts, other plant extracts, fractions and compounds as indicated. […] The concentrations of IL-6 and IL-8 in the supernatants were determined by Luminex kits (BIO-RAD Laboratories, Hercules, Calif.) and used in the LiquiChip Workstation IS 200 (Qiagen, Hilden, Germany). The data were evaluated with the LiquiChip Analyser software (Qiagen).
(§4) Mean values, standard deviation and p-values with Student's t-test were calculated with Excel. […]

IL-6 [1] = assay: IL-6 secretion of BEAS-2B cells treated with Diesel Particulate Matter; type: cell-based, human; conditions: for IL-6 % of PM + DMSO: PM + DMSO = 100
Source text: as §1
BEAS-2B cells were seeded in 12-well CellBIND® surface culture plates (Corning Inc.) at 3 to 4×10^5 cells per well. A549 cells were seeded in 12-well plates at 2×10^5 cells per well.
Diesel Particulate Matter (Standard Reference Material SRM 1650b, National Institute of Standards & Technology, NIST, Gaithersburg, Md.) at 80 mg/ml DMSO (100%) were sonicated for 5 min and thereafter diluted 400 fold in medium. This dilution was twofold further diluted for the assay.
After 24 h, cells were treated with the diluted Diesel Particulate Matter at 100 μg/ml and in the presence of different concentrations of Laurus Extracts, other plant extracts, fractions and compounds as indicated. The final DSMO concentrations were 0.175%. Untreated cells or cells treated with 0.175% DMSO were used as controls. After 24 h, cell supernatants were collected. The concentrations of IL-6 and IL-8 in the supernatants were determined by Luminex kits (BIO-RAD Laboratories, Hercules, Calif.) and used in the LiquiChip Workstation IS 200 (Qiagen, Hilden, Germany). The data were evaluated with the LiquiChip Analyser software (Qiagen).
Mean values, standard deviation and p-values with Student's t-test were calculated with Excel. P-values […] 0.05 were considered as indication for significance.

IL-6 [2] = assay: IL-6 secretion of A549 cells treated with Diesel Particulate Matter; type: cell-based, human; conditions: Table 4, LPS 10 μg/mL
Source text: as §1, §2, §3, §4

Nrf2 = assay: Luciferase reporter assay using H4IIE-ARE8L cells (Nrf2 activation); type: cell-based, rat; conditions: R-sulforaphane Conc. Final 4.55 μg/ml as printed, concentrations of fractions not given, DMSO 0.45 % control 2921
Method: PloS One. 2012; 7 (5): e36774). […] The media was exchanged every two to three-days. The DMEM assay medium used charcoal treated FBS ([…] transactivation assay was performed in 96 well plates. The plates were seeded with approximately 40,000 cells per well in 100 μ[…] and incubated over night at 37° C. Then the test compounds were diluted in […] and given to the cells as described below. The cells were incubated for at least further 16 h at 37° C. and 5% CO2. Cells were equilibrated to room temperature. Lysis of the cells was done by adding 100 μL lysis solution, Steady-Glo® luciferase buffer according to the manufacturer (Promega) containing 0.5 mM DTT per well and incubated for 10 min at room temperature with gentle shaking. The luminescence was measured within 2 hours after incubation on a luminometer (Mithras, Berthold Technologies). […] We used a rat hepatoma cell line that was stably transfected with a construct that contains eight tandem ARE elements in front of a luciferase reporter gene ([…], et al 2012. PloS One. 2012; 7(5):e36774). All extracts, fractions and pure compounds were tested for concentrations that induce toxicity. Non-toxic concentrations were then selected for treating cells as describes in the methods section.

Compound	IL-8 (IL-8; 24 h) [pg/mL]	IL-8 % of PM + DMSO (IL-8; PM + DMSO = 100) [%]	IL-6 induction relative to PM and DMSO (IL-6 [1]; LPS 10 μg/mL versus PM + DMSO (Table 2))	IL-6 (IL-6 [1]; Table 2, LPS 10 μg/mL, 24 h) [pg/mL]	IL-6 % of PM + DMSO (IL-6 [1]; Table 2, LPS 10 μg/mL, 24 h) [%]	IL-6 (IL-6 [1]; Table 3, LPS 10 μg/mL, 24 h) [pg/mL]	IL-6 % of PM + DMSO (IL-6 [1]; Table 3, LPS 10 μg/mL) [%]	IL-6 (IL-6 [2]; 24 h) [pg/mL]	IL-6 % of PM + DMSO (IL-6 [2]; PM + DMSO = 100) [%]	Nrf-2 activity, Average (Nrf2)
Lipopolysaccharide [LPS]	406	140	over 40 times	3760	4482	6477	10612	19.6	45	
C[S+]([O-])CCCCN=C=S (stereo not shown) [R-Sulforaphane, R-sulforaphane]										13233 relative units of luciferase fluorescence
